From US20100234377A1 (priority 2007, published 2010)

Tests used:
[1] = biological target: T1, human Prostaglandin D Synthase (GST2) (Homo sapiens, UniProt O60760); experiment: Homogeneous biochemical assay of human Prostaglandin D Synthase (GST2) based on its glutathion-S-transferase activity (GSH conjugation to monochlorobimane, fluorescence); details: given beside the compound name in Examples 1 to 167; read-out: Potency Range (GST2 IC50)
T1 construct: the open reading frame of human Prostaglandin D Synthase was amplified from cDNA; made in house; host or cells: E. coli TOP10F'
In short: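 N-His-tagged human PGD synthase from E. coli, assayed via its GST activity: GSH conjugation to monochlorobimane in 50 mM MES/KOH pH 6.1, 0.7 mM GSH, 2 mM MgCl2. Compounds at final picomolar to triple-digit micromolar concentrations.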

[2] = Mouse microsomal metabolism assay; assay type: in vitro ADME; details: mouse hepatic microsomes, 37° C., phosphate buffer pH 7.4, NADPH regenerating system; for half-life: liver microsomes, read-out: Mouse t½
Method: Selected GST2 Inhibitors from Formula I Assessed in Mouse Microsomal Metabolism Assay
Selected GST2 inhibitors of General Formula (I) were screened in a mouse hepatic microsome assay to determine microsomal metabolism.
Test Articles were prepared in 50% acetonitrile.
Mouse hepatic microsomes supplied by BD GenTest Inc or an equivalent reputable supplier.
Test Articles are added to incubation plates containing phosphate buffer pH 7.4 and microsomes at a suitable protein concentration. Incubation plates are placed on a shaking water bath at 37° C. for 5 minutes pre-incubation. An aliquot of the reaction mixture is taken and added to acetonitrile (3:1). This is designated time […]. NADPH regenerating system in phosphate buffer pH 7.4 is added to initiate reactions. Aliquots from the incubation wells are taken at a number of time points and added to acetonitrile. Control incubations contained no microsomes or compounds with known microsomal stabilities. Samples were subject to centrifugation to remove denatured protein and the supernatants were analysed by LCMS.
Half lives were calculated from the log vs time transformed data according to the following equation: […]
Where λ is the slope of the linear regression line under first order (Test Article concentration <Km) conditions.

T1 sequence (O60760 whole entry): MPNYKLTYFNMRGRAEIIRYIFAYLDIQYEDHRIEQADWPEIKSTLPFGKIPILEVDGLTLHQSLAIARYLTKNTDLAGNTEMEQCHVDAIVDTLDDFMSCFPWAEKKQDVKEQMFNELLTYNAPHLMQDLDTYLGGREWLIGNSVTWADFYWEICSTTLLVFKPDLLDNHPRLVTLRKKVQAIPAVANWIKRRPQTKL

IC50 [1] | half-life [2] | Compound | Mouse t½ [2]
101 to 1000 nM | 31.4 min | Cc1ccccc1C(=O)N1CCN(C(=O)Nc2ccc(F)cc2)CC1 [Compound 156, 4-(2-Methyl-benzoyl)-piperazine-1-carboxylic acid (4-fluoro-phenyl)-amide] | –
101 to 1000 nM | > 60 min | O=C(Nc1ccc(OC(F)(F)F)cc1)N1CCN(C(=O)c2cccc(F)n2)CC1 [Compound 21, 4-(6-Fluoro-pyridine-2-carbonyl)-piperazine-1-carboxylic acid (4-trifluoromethoxy-phenyl)-amide] | –
101 to 1000 nM | > 60 min | O=C(Nc1ccc(NC(=O)N2CCN(C(=O)c3cccc(F)c3)CC2)cc1)c1ccncc1 [Compound 123, 4-(3-Fluoro-benzoyl)-piperazine-1-carboxylic acid {4-[(pyridine-4-carbonyl)-amino]-phenyl}-amide] | –
11 to 100 nM | > 60 min | CC(C)NC(=O)N1CCN(c2ccc(NC(=O)N3CCN(C(=O)c4cccc(F)c4)CC3)cc2F)CC1 [Compound 52, 4-(3-fluorobenzoyl)-N-{3-fluoro-4-[4-(isopropylcarbamoyl)piperazin-1-yl]phenyl}piperazine-1-carboxamide] | –
101 to 1000 nM | 59.4 min | O=C(Nc1ccc(F)cc1)N1CCN(C(=O)c2cccc(F)c2)CC1 [Compound 155, 4-(3-Fluoro-benzoyl)-piperazine-1-carboxylic acid (4-fluoro-phenyl)-amide] | –
101 to 1000 nM | > 60 min | O=C(Nc1cccc(NC(=O)N2CCN(C(=O)c3cccc(F)c3)CC2)c1)c1ccc[n+]([O-])c1 [Compound 109, 4-(3-Fluoro-benzoyl)-piperazine-1-carboxylic acid {3-[(1-oxy-pyridine-3-carbonyl)-amino]-phenyl}-amide] | –
– | > 60 min | O=C(Nc1ccc(F)cc1)N1CCN(C(=O)c2cccc(F)n2)CC1 [XXIII, 4-(6-Fluoro-pyridine-2-carbonyl)-piperazine-1-carboxylic acid (4-fluoro-phenyl)-amide] | –
101 to 1000 nM | > 60 min | O=C(Nc1ccc(Cl)nc1)N1CCN(C(=O)c2cccc(F)c2)CC1 [Compound 63, 4-(3-Fluoro-benzoyl)-piperazine-1-carboxylic acid (6-chloro-pyridin-3-yl)-amide] | –
101 to 1000 nM | > 60 min | NC(=O)c1ccc(NC(=O)N2CCN(C(=O)c3cccc(F)c3)CC2)cc1 [Compound 105, 4-(3-Fluoro-benzoyl)-piperazine-1-carboxylic acid (4-carbamoyl-phenyl)-amide] | –
– | 20.9 min | O=C(Nc1ccc(N2CCNCC2)c(F)c1)N1CCN(Cc2cccc(F)n2)CC1 [XXVII, 4-(6-Fluoro-pyridin-2-ylmethyl)-piperazine-1-carboxylic acid (3-fluoro-4-piperazin-1-yl-phenyl)-amide] | –
– | 31.4 min | O=C(Nc1ccc(N2CCOCC2)nc1)N1CCN(Cc2cccc(F)c2)CC1 [XXIV, 4-(3-Fluoro-benzyl)-piperazine-1-carboxylic acid (6-morpholin-4-yl-pyridin-3-yl)-amide] | –
– | 27.6 min | O=C(Nc1ccc(N2CCOCC2)nc1)N1CCN(Cc2ccccc2)CC1 [XXV, 4-Benzyl-piperazine-1-carboxylic acid (6-morpholin-4-yl-pyridin-3-yl)-amide] | –
– | 21.9 min | O=C(Nc1ccc(F)cc1)N1CCN(Cc2ccccc2O)CC1 [XXVI, 4-(2-Hydroxy-benzyl)-piperazine-1-carboxylic acid (4-fluoro-phenyl)-amide] | –
– | 12.1 min | O=C(Nc1ccc(F)cc1)N1CCN(Cc2cccc3c2OC(F)(F)O3)CC1 [XXIX, 4-(2,2-Difluoro-benzo[1,3]dioxol-4-ylmethyl)-piperazine-1-carboxylic acid (4-fluoro-phenyl)-amide] | –
– | 15.5 min | O=C(Nc1ccc(N2CCOCC2)nc1)N1CCN(Cc2cc(F)cc(F)c2)CC1 [XXVIII, 4-(3,5-Difluoro-benzyl)-piperazine-1-carboxylic acid (6-morpholin-4-yl-pyridin-3-yl)-amide] | –
– | 4.4 min | Cc1ccccc1CN1CCN(C(=O)Nc2ccc(F)cc2)CC1 [XXXI, 4-(2-Methyl-benzyl)-piperazine-1-carboxylic acid (4-fluoro-phenyl)-amide] | –
11 to 100 nM | – | O=C(Nc1ccc(-c2cccnc2)c(F)c1)N1CCN(C(=O)c2cccc(F)c2)CC1 [Compound 147, 4-(3-Fluoro-benzoyl)-piperazine-1-carboxylic acid (3-fluoro-4-pyridin-3-yl-phenyl)-amide] | –
101 to 1000 nM | – | O=C(Nc1cc(Cl)nc(Cl)c1)N1CCN(C(=O)c2cccc(F)c2)CC1 [Compound 24, 4-(3-Fluoro-benzoyl)-piperazine-1-carboxylic acid (2,6-dichloro-pyridin-4-yl)-amide] | –
101 to 1000 nM | – | CN(C)c1ccc(NC(=S)N2CCN(C(=O)c3ccc(F)cc3)CC2)cc1 [Compound 10, 4-(4-Fluoro-benzoyl)-piperazine-1-carbothioic acid (4-dimethylamino-phenyl)-amide] | –
101 to 1000 nM | – | NC(=O)c1cccc(C(=O)N2CCN(C(=O)Nc3ccc(F)cc3)CC2)c1 [Compound 157, 4-(3-Carbamoyl-benzoyl)-piperazine-1-carboxylic acid (4-fluoro-phenyl)-amide] | –
101 to 1000 nM | – | O=C(Nc1ccc(-n2cncn2)c(F)c1)N1CCN(C(=O)c2cccc(F)c2)CC1 [Compound 145] | –
101 to 1000 nM | – | O=C(Nc1ccc(-n2ccnc2)c(F)c1)N1CCN(C(=O)c2cccc(F)c2)CC1 [Compound 144] | –
11 to 100 nM | – | CC(C)(C)C(=O)N1CCN(c2ccc(NC(=O)N3CCN(C(=O)c4cccc(F)c4)CC3)cc2F)CC1 [Compound 56, 4-(3-Fluoro-benzoyl)-piperazine-1-carboxylic acid {4-[4-(2,2-dimethyl-propionyl)-piperazin-1-yl]-3-fluoro-phenyl}-amide] | –
1 to 10 nM | – | COc1ccc2nc(NC(=O)N3CCN(C(=O)c4cccc(F)c4)CC3)sc2c1 [Compound 81, 4-(3-Fluoro-benzoyl)-piperazine-1-carboxylic acid (6-methoxy-benzothiazol-2-yl)-amide] | –
11 to 100 nM | – | O=C(Nc1ccc(N2CCOCC2)c(Cl)c1)N1CCN(C(=O)c2cccc(F)c2)CC1 [Compound 38, 4-(3-Fluoro-benzoyl)-piperazine-1-carboxylic acid (3-chloro-4-morpholin-4-yl-phenyl)-amide] | –
101 to 1000 nM | – | O=C(Nc1cccc(-c2ncn[nH]2)c1)N1CCN(C(=O)c2cccc(F)c2)CC1 [Compound 159, 4-(3-Fluoro-benzoyl)-piperazine-1-carboxylic acid [3-(2H-[1,2,4]triazol-3-yl)-phenyl]-amide] | –
– | 10.6 min | O=C(Nc1ccc(F)cc1)N1CCN(Cc2cccc(F)c2)CC1 [XXX, 4-(3-Fluoro-benzyl)-piperazine-1-carboxylic acid (4-fluoro-phenyl)-amide] | –
101 to 1000 nM | – | O=C(O)c1ccc(NC(=O)N2CCN(C(=O)c3cccc(F)c3)CC2)cc1F [Compound 96, 2-Fluoro-4-{[4-(3-fluoro-benzoyl)-piperazine-1-carbonyl]-amino}-benzoic acid] | –

Compound | IC50 [1] | half-life [2] | Mouse t½ [2]
4-(2-Fluoro-4-{[4-(3-fluoro-benzoyl)-piperazine-1-carbonyl]-amino}-phenyl)-piperazine-1-carboxylic acid isopropyl ester [Compound 50] | 11 to 100 nM | – | >60 min
4-(3-Fluoro-benzoyl)-piperazine-1-carboxylic acid [4-(2-methyl-thiazol-3-yl)-phenyl]-amide [Compound 29] | 11 to 100 nM | – | –
